Each structure is given as a SMILES string. A value given as a limit tells only on which side of the number the result lay.

This test has as its system HCV 1b_Huh-Luc/Neo-ET cell line (genotype 1b replicon in Huh 7 cells). The test can be described thus: HCV replicon assay (luciferase readout). Format: cell-based. To be noted: Hepatitis C virus, HCV 1b replicon in Huh 7 cells, 72 h incubation, EC50 range class, read-out: Inhibition of HCV genotype 1b. The essentials:
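Huh 7 cells stably carrying a bicistronic genotype 1b luciferase replicon were treated in triplicate the day after plating and incubated 72 h before luciferase read-out. Signal was expressed as % of untreated control, and EC50 was fitted by four-parameter logistic and averaged over repeat determinations.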
In the case of `COC(=O)N[C@@H](C(=O)N1CSC[C@H]1c1ncc(-c2ccc3c(=O)c4cc(-c5cnc([C@@H]6CSCN6C(=O)[C@H](NC(=O)OC)c6ccccc6)[nH]5)ccc4oc3c2)[nH]1)c1ccccc1` [Compound 129], the EC50 was under 1 nM.

Turning to `CC[C@H](C)[C@H](NC(=O)OC)C(=O)N1CCC[C@H]1c1ncc(-c2ccc3c(c2)Oc2ccc(-c4cnc([C@@H]5CCCN5C(=O)[C@@H](NC(=O)OC)[C@@H](C)CC)[nH]4)cc2C3(C)C)[nH]1` [Compound 70], the EC50 is under 1 nM.

Take `COC(=O)N[C@H](C(=O)N1CCC[C@H]1c1nc2ccc(-c3ccc4c(=O)c5cc(-c6cnc([C@@H]7CCCN7C(=O)[C@H](NC(=O)OC)c7ccccc7)[nH]6)ccc5oc4c3)cc2[nH]1)C(C)C` [Compound 137]: the EC50 was under 1 nM.

On to `COC(=O)N[C@H](C(=O)N1CCC[C@H]1c1ncc(-c2ccc3c(c2)Cc2ccc(-c4cnc([C@@H]5CCCN5C(=O)[C@@H](NC(=O)OC)C5CCCC5)[nH]4)cc2O3)[nH]1)C1CCCC1` [Compound 32], for which the EC50 is under 1 nM.

Take `COC(=O)N[C@H](C(=O)N1CCC[C@H]1c1ncc(-c2ccc3oc4cc(-c5cnc([C@@H]6CCCN6C(=O)[C@H](NC(=O)OC6CCOCC6)c6ccccc6)[nH]5)ccc4c(=O)c3c2)[nH]1)C(C)C` [Example 21]: the EC50 was under 1 nM.

For `COC(=O)N[C@H](C(=O)N1CCC[C@H]1c1ncc(-c2ccc3c(c2)Cc2cc(F)c(-c4cnc([C@@H]5CCCN5C(=O)[C@@H](NC(=O)OC)[C@@H](C)OC)[nH]4)cc2O3)[nH]1)[C@@H](C)OC` [Compound 40], the EC50 is under 1 nM.

`CC[C@H](C)[C@H](NC(=O)OC)C(=O)N1CCC[C@H]1c1ncc(-c2ccc3c(c2)Oc2ccc(-c4cnc([C@@H]5CCCN5C(=O)[C@@H](NC(=O)OC)[C@@H](C)CC)[nH]4)cc2C32CC2)[nH]1` [Compound 79]: the EC50 is under 1 nM.

For the compound `COC(=O)N[C@@H](C(=O)N[C@@H](C)c1ncc(-c2ccc3c(c2)Oc2ccc(-c4cnc([C@H](C)NC(=O)[C@H](NC(=O)OC)c5ccccc5)[nH]4)cc2O3)[nH]1)c1ccccc1` [Compound 38], the EC50 was under 1 nM.

Regarding `COC(=O)N[C@H](C(=O)N1CCC[C@H]1c1ncc(-c2ccc3c(=O)c4cc(-c5cnc([C@@H]6CCCN6C(=O)[C@H](NC(=O)OC)c6ccccc6)[nH]5)ccc4oc3c2)[nH]1)C(C)C` [Example 15], the EC50 is under 1 nM.

The record behind these values is US8999967B2, “Tricyclic fused ring inhibitors of hepatitis C” (Presidio Pharmaceuticals, Inc., priority 2010, dated 2015).
